Laboratory results as given in paper PMC7441158 (Nature Communications, 2020).

What was measured:
VIP receptor 1 (VPAC1) = biological target: T1, VIP receptor 1 (VPAC1) (Homo sapiens, UniProt P32241); assay: cAMP assay, COS-7 cells transiently expressing VPAC1; assay type: cell-based; conditions: for EC50: log(EC50) VPAC1 + VIP, log10 of EC50, COS-7 cells, cAMP, Hill = 1, top constrained to 100%
T1 sequence (P32241 31-457): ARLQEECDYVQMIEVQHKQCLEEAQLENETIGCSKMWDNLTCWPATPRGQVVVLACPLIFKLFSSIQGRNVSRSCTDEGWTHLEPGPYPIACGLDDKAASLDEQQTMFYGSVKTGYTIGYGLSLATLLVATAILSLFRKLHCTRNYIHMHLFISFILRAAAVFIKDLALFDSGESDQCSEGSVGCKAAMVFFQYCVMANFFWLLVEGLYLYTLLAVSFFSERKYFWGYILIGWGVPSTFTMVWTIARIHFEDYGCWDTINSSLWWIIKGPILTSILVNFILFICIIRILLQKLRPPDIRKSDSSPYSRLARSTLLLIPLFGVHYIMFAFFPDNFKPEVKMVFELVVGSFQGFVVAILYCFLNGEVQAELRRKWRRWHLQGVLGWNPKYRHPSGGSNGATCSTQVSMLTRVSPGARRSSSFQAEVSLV

VIP receptor 2 (VPAC2) = biological target: T2, VIP receptor 2 (VPAC2) (Homo sapiens, UniProt P41587); assay: cAMP assay, COS-7 cells transiently expressing VPAC2; assay type: cell-based; conditions: for % receptor activation at 1µM agonist: VPAC2 + VIP, Suppl. fig 5a source data; for EC50: log(EC50) VPAC 2 + VIP, log10 of EC50, COS-7 cells, cAMP, Hill = 1, top constrained to 100%
T2 sequence (P41587 24-438): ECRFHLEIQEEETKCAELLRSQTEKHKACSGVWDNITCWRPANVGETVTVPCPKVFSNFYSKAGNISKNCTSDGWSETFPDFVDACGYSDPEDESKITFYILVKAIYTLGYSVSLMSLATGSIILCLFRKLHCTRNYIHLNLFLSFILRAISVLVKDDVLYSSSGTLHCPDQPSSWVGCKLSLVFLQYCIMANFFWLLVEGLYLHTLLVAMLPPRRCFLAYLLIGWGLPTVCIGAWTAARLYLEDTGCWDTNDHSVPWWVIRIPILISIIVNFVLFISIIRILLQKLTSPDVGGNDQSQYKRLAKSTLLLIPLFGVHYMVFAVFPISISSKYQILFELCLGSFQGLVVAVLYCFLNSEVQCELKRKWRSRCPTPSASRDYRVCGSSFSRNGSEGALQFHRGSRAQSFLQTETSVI

[1] = independent experiment 1, duplicate determinations
[2] = independent experiment 2, duplicate determinations
[3] = independent experiment 3, duplicate determinations

| Structure (SMILES) | EC50 (VIP receptor 1 (VPAC1); [1]) | EC50 (VIP receptor 1 (VPAC1); [2]) | EC50 (VIP receptor 1 (VPAC1); [3]) | Efficacy raw data for Glucagon-receptors, VPAC1 + VIP (VIP receptor 1 (VPAC1); replicate 1) | Efficacy raw data for Glucagon-receptors, VPAC1 + VIP (VIP receptor 1 (VPAC1); replicate 2) | Efficacy raw data for Glucagon-receptors, VPAC1 + VIP (VIP receptor 1 (VPAC1); replicate 3) | % receptor activation at 1µM agonist (VIP receptor 2 (VPAC2); replicate 1) | % receptor activation at 1µM agonist (VIP receptor 2 (VPAC2); replicate 2) | % receptor activation at 1µM agonist (VIP receptor 2 (VPAC2); replicate 3) | % receptor activation at 1µM agonist (VIP receptor 2 (VPAC2); replicate 4) | % receptor activation at 1µM agonist (VIP receptor 2 (VPAC2); replicate 5) | % receptor activation at 1µM agonist (VIP receptor 2 (VPAC2); replicate 6) | EC50 (VIP receptor 2 (VPAC2); [1]) | EC50 (VIP receptor 2 (VPAC2); [2]) | EC50 (VIP receptor 2 (VPAC2); [3]) | Efficacy raw data for Glucagon-receptors, VPAC2 + VIP (VIP receptor 2 (VPAC2); replicate 1) | Efficacy raw data for Glucagon-receptors, VPAC2 + VIP (VIP receptor 2 (VPAC2); replicate 3) | % receptor activation at 1µM agonist (VIP receptor 1 (VPAC1); VPAC1 + VIP, 1µM agonist, Suppl. fig 5a source data, replicate 5) | Efficacy raw data for Glucagon-receptors, VPAC2 + VIP (VIP receptor 2 (VPAC2); replicate 2) |
| --- | --- | --- | --- | --- | --- | --- | --- | --- | --- | --- | --- | --- | --- | --- | --- | --- | --- | --- | --- |
| CC[C@H](C)[C@H](NC(=O)[C@H](CO)NC(=O)[C@H](CC(N)=O)NC(=O)[C@H](CC(C)C)NC(=O)[C@H](Cc1ccc(O)cc1)NC(=O)[C@H](CCCCN)NC(=O)[C@H](CCCCN)NC(=O)[C@@H](NC(=O)[C@H](C)NC(=O)[C@H](CCSC)NC(=O)[C@H](CCC(N)=O)NC(=O)[C@H](CCCCN)NC(=O)[C@H](CCCNC(=N)N)NC(=O)[C@H](CC(C)C)NC(=O)[C@H](CCCNC(=N)N)NC(=O)[C@@H](NC(=O)[C@H](Cc1ccc(O)cc1)NC(=O)[C@H](CC(N)=O)NC(=O)[C@H](CC(=O)O)NC(=O)[C@@H](NC(=O)[C@H](Cc1ccccc1)NC(=O)[C@@H](NC(=O)[C@H](C)NC(=O)[C@H](CC(=O)O)NC(=O)[C@H](CO)NC(=O)[C@@H](N)Cc1c[nH]cn1)C(C)C)[C@@H](C)O[C@H]1O[C@H](CO)[C@H](O)[C@H](O[C@@H]2O[C@H](CO)[C@H](O)[C@H](O[C@]3(C(=O)O)C[C@H](O)[C@@H](NC(C)=O)[C@H]([C@H](O)[C@H](O)CO)O3)[C@H]2O)[C@H]1NC(C)=O)[C@@H](C)O)C(C)C)C(=O)N[C@@H](CC(C)C)C(=O)N[C@@H](CC(N)=O)C(N)=O [VIP ST] | 34.1 nM | 116 nM | 162 nM | 91.02 | 112.4 | 93.56 | 68.0% | 68.9% | 66.1% | 69.7% | 54.2% | 49.2% | 378 nM | 596 nM | 946 nM | 72.87 | 74.68 |  |  |
| CC[C@H](C)[C@H](NC(=O)[C@H](CO)NC(=O)[C@H](CC(N)=O)NC(=O)[C@H](CC(C)C)NC(=O)[C@H](Cc1ccc(O)cc1)NC(=O)[C@H](CCCCN)NC(=O)[C@H](CCCCN)NC(=O)[C@@H](NC(=O)[C@H](C)NC(=O)[C@H](CCSC)NC(=O)[C@H](CCC(N)=O)NC(=O)[C@H](CCCCN)NC(=O)[C@H](CCCNC(=N)N)NC(=O)[C@H](CC(C)C)NC(=O)[C@H](CCCNC(=N)N)NC(=O)[C@@H](NC(=O)[C@H](Cc1ccc(O)cc1)NC(=O)[C@H](CC(N)=O)NC(=O)[C@H](CC(=O)O)NC(=O)[C@@H](NC(=O)[C@H](Cc1ccccc1)NC(=O)[C@@H](NC(=O)[C@H](C)NC(=O)[C@H](CC(=O)O)NC(=O)[C@H](CO)NC(=O)[C@@H](N)Cc1c[nH]cn1)C(C)C)[C@@H](C)O[C@H]1O[C@H](CO)[C@H](O)[C@H](O[C@@H]2O[C@H](CO)[C@H](O)[C@H](O)[C@H]2O)[C@H]1NC(C)=O)[C@@H](C)O)C(C)C)C(=O)N[C@@H](CC(C)C)C(=O)N[C@@H](CC(N)=O)C(N)=O [VIP T] | 18.9 nM | 88.7 nM | 45.8 nM | 95.97 | 106.4 | 107.3 | 72.7% | 72.4% | 74.8% | 68.0% | 58.9% | 52.3% | 202 nM | 422 nM | 718 nM | 75.53 | 67.09 | 104.2% | 106.2 |
| CC[C@H](C)[C@H](NC(=O)[C@H](CO)NC(=O)[C@H](CC(N)=O)NC(=O)[C@H](CC(C)C)NC(=O)[C@H](Cc1ccc(O)cc1)NC(=O)[C@H](CCCCN)NC(=O)[C@H](CCCCN)NC(=O)[C@@H](NC(=O)[C@H](C)NC(=O)[C@H](CCSC)NC(=O)[C@H](CCC(N)=O)NC(=O)[C@H](CCCCN)NC(=O)[C@H](CCCNC(=N)N)NC(=O)[C@H](CC(C)C)NC(=O)[C@H](CCCNC(=N)N)NC(=O)[C@@H](NC(=O)[C@H](Cc1ccc(O)cc1)NC(=O)[C@H](CC(N)=O)NC(=O)[C@H](CC(=O)O)NC(=O)[C@@H](NC(=O)[C@H](Cc1ccccc1)NC(=O)[C@@H](NC(=O)[C@H](C)NC(=O)[C@H](CC(=O)O)NC(=O)[C@H](CO)NC(=O)[C@@H](N)Cc1c[nH]cn1)C(C)C)[C@@H](C)O)[C@@H](C)O)C(C)C)C(=O)N[C@@H](CC(C)C)C(=O)N[C@@H](CC(N)=O)C(N)=O [VIP non-glycosylated] |  |  |  |  |  |  | 79.5% | 82.6% | 101.8% | 110.5% | 97.7% | 107.3% |  |  |  |  |  |  |  |
| CC[C@H](C)[C@H](NC(=O)[C@H](CO)NC(=O)[C@H](CC(N)=O)NC(=O)[C@H](CC(C)C)NC(=O)[C@H](Cc1ccc(O)cc1)NC(=O)[C@H](CCCCN)NC(=O)[C@H](CCCCN)NC(=O)[C@@H](NC(=O)[C@H](C)NC(=O)[C@H](CCSC)NC(=O)[C@H](CCC(N)=O)NC(=O)[C@H](CCCCN)NC(=O)[C@H](CCCNC(=N)N)NC(=O)[C@H](CC(C)C)NC(=O)[C@H](CCCNC(=N)N)NC(=O)[C@@H](NC(=O)[C@H](Cc1ccc(O)cc1)NC(=O)[C@H](CC(N)=O)NC(=O)[C@H](CC(=O)O)NC(=O)[C@@H](NC(=O)[C@H](Cc1ccccc1)NC(=O)[C@@H](NC(=O)[C@H](C)NC(=O)[C@H](CC(=O)O)NC(=O)[C@H](CO)NC(=O)[C@@H](N)Cc1c[nH]cn1)C(C)C)[C@@H](C)O)[C@@H](C)O)C(C)C)C(=O)N[C@@H](CC(C)C)C(=O)N[C@@H](CC(N)=O)C(N)=O [VIP, vasoactive intestinal polypeptide, reference compound] |  |  |  |  |  |  |  |  |  |  |  |  |  |  |  | 99.97 | 100 |  | 100 |
